# Tests used:
# ALK5 = biological target: T1, ALK5 (Homo sapiens, UniProt P36897); assay: Radiometric 33PanQinase ALK5 kinase assay (ProQinase), casein substrate; format: biochemical; details: for Selectivity Index: IC50 of p38α/IC50 of ALK5; for remaining activity at 10 µM: compound at 10 μM, in duplicate, read-out: Residual Activity (%) ALK5; for ALK5 inhibitory activity in words: at up to 5.0 μM for 18a–d, 'at up to 2.26 μM' for pyrimidin-4-yl compounds
# T1 sequence (P36897 205-495 limits assumed): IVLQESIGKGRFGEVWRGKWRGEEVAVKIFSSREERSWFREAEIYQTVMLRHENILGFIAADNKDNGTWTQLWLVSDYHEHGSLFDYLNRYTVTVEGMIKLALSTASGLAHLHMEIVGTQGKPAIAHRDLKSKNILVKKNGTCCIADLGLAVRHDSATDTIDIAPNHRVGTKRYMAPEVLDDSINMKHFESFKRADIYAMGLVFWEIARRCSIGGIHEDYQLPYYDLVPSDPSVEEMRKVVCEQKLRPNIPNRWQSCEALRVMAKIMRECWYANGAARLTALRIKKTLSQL
# Protocol: To investigate whether compounds 14a–d, 15a–d, 16a–d, 17a–d, 18a–d, and 19a–d would inhibit ALK5, a kinase assay for preliminary screening was performed using the purified human ALK5 kinase domain produced in Sf9 insect cells and compounds at 10 μM.
# (§1) All kinase experiments were completed by the ProQinase (Freiburg, Germany). All protein kinases were expressed in Sf9 insect cells or in E. coli as recombinant GST-fusion proteins or His-tagged proteins, either as full-length or enzymatically active fragments. All kinases were obtained from human cDNAs and purified by either GSH-affinity chromatography or immobilized metal. The purity of the protein kinases was examined by SDS-PAGE/Coomassie staining. The identity was checked by mass spectroscopy.
# (§2) A radiometric protein kinase assay (^33PanQinase® activity assay) was used for measuring the kinase activity of the two protein kinases. All kinase assays were performed in 96-well FlashPlates^TM from PerkinElmer (Boston, MA, USA) in 50 μL reaction volumes. The reaction cocktail was pipetted in four steps in the following order: 20 μL of assay buffer (standard buffer), 5 μL of ATP solution (in H2O), 5 μL of test compound (in 10% DMSO), 20 μL enzyme/substrate mix.
# (§3) The assay for all protein kinases contained 70 mM HEPES-NaOH pH 7.5, 3 mM MgCl2, 3 mM MnCl2, 3 μM Na-orthovanadate, 1.2 mM DTT, 50 μg/mL PEG20000, ATP, [γ-^33P]-ATP, protein kinase, and substrate.
# (§4) The reaction cocktail was incubated at 30 °C for 60 min. The reaction was halted with 50 μL of 2% (v/v) H3PO4, plates were aspirated and washed two times with 200 μL 0.9% (w/v) NaCl. Incorporation of ^33Pi was established with a microplate scintillation counter (PerkinElmer, Boston, MA, USA). All assays were performed with a BeckmanCoulter/SAGIAN™ Core System.
# p38α MAP kinase = p38α MAP kinase (Homo sapiens, UniProt Q16539); assay: Radiometric 33PanQinase p38α MAP kinase assay (ProQinase), ATF2 substrate; format: biochemical; details: for remaining activity at 10 µM: compound at 10 μM, in duplicate, read-out: Residual Activity (%) p38α
# Sequence of p38α MAP kinase (Q16539 whole entry, the tested form may be a part): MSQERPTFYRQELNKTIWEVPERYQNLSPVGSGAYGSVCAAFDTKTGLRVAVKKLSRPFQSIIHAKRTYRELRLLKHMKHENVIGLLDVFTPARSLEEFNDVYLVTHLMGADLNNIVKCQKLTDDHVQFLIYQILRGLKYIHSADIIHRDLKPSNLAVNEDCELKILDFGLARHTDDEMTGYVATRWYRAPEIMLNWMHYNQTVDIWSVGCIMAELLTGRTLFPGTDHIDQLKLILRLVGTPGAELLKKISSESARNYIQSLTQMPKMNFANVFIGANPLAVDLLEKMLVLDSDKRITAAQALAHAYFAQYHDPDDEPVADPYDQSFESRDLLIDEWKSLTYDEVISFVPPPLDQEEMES
# From the text: We selected p38α MAP kinase to survey the selectivity profile of this series of compounds because its kinase domain is among the most homologous to that of ALK5 [27].
# as §1, §2, §3, §4
Compound,IC50 (ALK5),Selectivity Index (ALK5),remaining activity at 10 µM (ALK5),IC50 (p38α MAP kinase),remaining activity at 10 µM (p38α MAP kinase),melting point,ALK5 inhibitory activity in words (ALK5),fold more selective than compound 3 (LY-2157299) against p38α MAP kinase (ALK5),inhibition at 10 µM (ALK5; at 10 µM)
"Cc1csc(-c2nn(CC(=S)Nc3ccccc3)cc2-c2ccc3nccnc3c2)n1 [Compound 19a, 2-(3-(4-Methylthiazol-2-yl)-4-(quinoxalin-6-yl)-1H-pyrazol-1-yl)-N-phenylethanethioamide]",0.57 µM,>17,5%,> 10 µM,102%,–,–,–,–
"Cc1csc(-c2nn(CC(=O)Nc3ccccc3F)cc2-c2ccc3nccnc3c2)n1 [Compound 16b, N-(2-Fluorophenyl)-2-(3-(4-methylthiazol-2-yl)-4-(quinoxalin-6-yl)-1H-pyrazol-1-yl)acetamide]",–,–,5%,–,103%,197.5 to 200 °C,–,–,–
"Cc1csc(-c2nn(CC(=O)Nc3ccccc3)cc2-c2ccc3nccnc3c2)n1 [Compound 16a, 2-(3-(4-Methylthiazol-2-yl)-4-(quinoxalin-6-yl)-1H-pyrazol-1-yl)-N-phenylacetamide]",–,–,5%,–,98%,190.2 to 192.5 °C,–,–,–
"Cc1csc(-c2c(-c3ccc4nccnc4c3)cnn2CC(=O)Nc2cccc(F)c2)n1 [Compound 17c, N-(3-Fluorophenyl)-2-(5-(4-methylthiazol-2-yl)-4-(quinoxalin-6-yl)-1H-pyrazol-1-yl)acetamide]",–,–,69%,–,66%,–,–,–,–
"Cc1cccc(-c2nn3c(c2-c2ccnc4ccc(C(N)=O)cc24)CCC3)n1 [Compound 3, LY-2157299, reference compound]",–,–,1%,0.49 µM,4%,–,–,–,–
"Cc1csc(-c2nn(CC(=S)Nc3cccc(F)c3)cc2-c2ccc3nccnc3c2)n1 [Compound 19c, N-(3-Fluorophenyl)-2-(3-(4-methylthiazol-2-yl)-4-(quinoxalin-6-yl)-1H-pyrazol-1-yl)ethanethioamide]",0.33 µM,>30,2%,> 10 µM,109%,–,–,–,–
"Cc1csc(-c2c(-c3ccc4nccnc4c3)cnn2CC(=O)Nc2ccccc2)n1 [Compound 17a, 2-(5-(4-Methylthiazol-2-yl)-4-(quinoxalin-6-yl)-1H-pyrazol-1-yl)-N-phenylacetamide]",–,–,46%,–,68%,–,–,–,–
"Fc1ccccc1NC(=S)Cn1cc(-c2ccc3nccnc3c2)c(-c2ccncn2)n1 [Compound 27b, N-(2-Fluorophenyl)-2-(3-(pyrimidin-4-yl)-4-(quinoxalin-6-yl)-1H-pyrazol-1-yl)ethanethioamide]",> 10 µM,–,–,> 10 µM,–,–,no significant ALK5 inhibition activity,–,–
"Cc1csc(-c2c(-c3ccc4nccnc4c3)cnn2CC(=O)Nc2ccccc2F)n1 [Compound 17b, N-(2-Fluorophenyl)-2-(5-(4-methylthiazol-2-yl)-4-(quinoxalin-6-yl)-1H-pyrazol-1-yl)acetamide]",–,–,73%,–,54%,–,–,–,–
"Cc1csc(-c2nn(CC(=S)Nc3ccccc3F)cc2-c2ccc3nccnc3c2)n1 [Compound 19b, N-(2-Fluorophenyl)-2-(3-(4-methylthiazol-2-yl)-4-(quinoxalin-6-yl)-1H-pyrazol-1-yl)ethanethioamide]",0.28 µM,>35,2%,> 10 µM,92%,–,–,9.0 fold,98%

# The next lines start with the values.
IC50 (ALK5),Selectivity Index (ALK5),remaining activity at 10 µM (ALK5),IC50 (p38α MAP kinase),remaining activity at 10 µM (p38α MAP kinase),melting point,ALK5 inhibitory activity in words (ALK5),fold more selective than compound 3 (LY-2157299) against p38α MAP kinase (ALK5),inhibition at 10 µM (ALK5; at 10 µM),Compound
–,–,95%,–,121%,218.5 to 221.5 °C,–,–,–,"CN(C)c1cccc(-c2nn(CC(=O)Nc3cccc(C#N)c3)cc2-c2ccc3nccnc3c2)n1 [Compound 14d, N-(3-Cyanophenyl)-2-(3-(6-(dimethylamino)pyridin-2-yl)-4-(quinoxalin-6-yl)-1H-pyrazol-1-yl)acetamide]"
–,–,95%,–,118%,–,–,–,–,"CN(C)c1cccc(-c2c(-c3ccc4nccnc4c3)cnn2CC(=O)Nc2ccccc2)n1 [Compound 15a, 2-(5-(6-(Dimethylamino)pyridin-2-yl)-4-(quinoxalin-6-yl)-1H-pyrazol-1-yl)-N-phenylacetamide]"
–,–,87%,–,117%,130.2 to 133 °C,–,–,–,"CN(C)c1cccc(-c2c(-c3ccc4nccnc4c3)cnn2CC(=O)Nc2ccccc2F)n1 [Compound 15b, 2-(5-(6-(Dimethylamino)pyridin-2-yl)-4-(quinoxalin-6-yl)-1H-pyrazol-1-yl)-N-(2-fluorophenyl)acetamide]"
–,–,58%,–,97%,–,–,–,–,"Cc1csc(-c2c(-c3ccc4nccnc4c3)cnn2CC(=O)Nc2cccc(C#N)c2)n1 [Compound 17d, N-(3-Cyanophenyl)-2-(5-(4-methylthiazol-2-yl)-4-(quinoxalin-6-yl)-1H-pyrazol-1-yl)acetamide]"
5 µM,>2,29%,> 10 µM,165%,68.5 to 70.2 °C,–,–,–,"CN(C)c1cccc(-c2nn(CC(=S)Nc3cccc(F)c3)cc2-c2ccc3nccnc3c2)n1 [Compound 18c, 2-(3-(6-(Dimethylamino)pyridin-2-yl)-4-(quinoxalin-6-yl)-1H-pyrazol-1-yl)-N-(3-fluorophenyl)ethanethioamide]"
–,–,37%,–,121%,176.5 to 178.5 °C,–,–,–,"CN(C)c1cccc(-c2nn(CC(=O)Nc3cccc(F)c3)cc2-c2ccc3nccnc3c2)n1 [Compound 14c, 2-(3-(6-(Dimethylamino)pyridin-2-yl)-4-(quinoxalin-6-yl)-1H-pyrazol-1-yl)-N-(3-fluorophenyl)acetamide]"
5.75 µM,>2,29%,> 10 µM,119%,182 to 184 °C,–,–,–,"CN(C)c1cccc(-c2nn(CC(=S)Nc3ccccc3)cc2-c2ccc3nccnc3c2)n1 [Compound 18a, 2-(3-(6-(Dimethylamino)pyridin-2-yl)-4-(quinoxalin-6-yl)-1H-pyrazol-1-yl)-N-phenylethanethioamide]"
5.03 µM,>2,–,> 10 µM,–,170.3 to 172.5 °C,no significant ALK5 inhibition activity,–,–,"O=C(Cn1cc(-c2ccc3nccnc3c2)c(-c2ccncn2)n1)Nc1ccccc1 [Compound 25a, N-Phenyl-2-(3-(pyrimidin-4-yl)-4-(quinoxalin-6-yl)-1H-pyrazol-1-yl)acetamide]"
> 10 µM,–,54%,> 10 µM,119%,108.5 to 110 °C,–,–,–,"CN(C)c1cccc(-c2nn(CC(=S)Nc3cccc(C#N)c3)cc2-c2ccc3nccnc3c2)n1 [Compound 18d, N-(3-Cyanophenyl)-2-(3-(6-(dimethylamino)pyridin-2-yl)-4-(quinoxalin-6-yl)-1H-pyrazol-1-yl)ethanethioamide]"
–,–,3%,–,108%,222.3 to 223 °C,–,–,–,"Cc1csc(-c2nn(CC(=O)Nc3cccc(C#N)c3)cc2-c2ccc3nccnc3c2)n1 [Compound 16d, N-(3-Cyanophenyl)-2-(3-(4-methylthiazol-2-yl)-4-(quinoxalin-6-yl)-1H-pyrazol-1-yl)acetamide]"
0.37 µM,>27,13%,> 10 µM,105%,–,–,–,–,"Cc1csc(-c2nn(CC(=S)Nc3cccc(C#N)c3)cc2-c2ccc3nccnc3c2)n1 [Compound 19d, N-(3-Cyanophenyl)-2-(3-(4-methylthiazol-2-yl)-4-(quinoxalin-6-yl)-1H-pyrazol-1-yl)ethanethioamide]"
2.26 µM,>4,–,> 10 µM,–,–,no significant ALK5 inhibition activity,–,–,"N#Cc1cccc(NC(=S)Cn2cc(-c3ccc4nccnc4c3)c(-c3ccncn3)n2)c1 [Compound 27d, N-(3-Cyanophenyl)-2-(3-(pyrimidin-4-yl)-4-(quinoxalin-6-yl)-1H-pyrazol-1-yl)ethanethioamide]"
